Reference: patent publication US20170327786A1 (Biogen MA Inc., priority 2014, published 2017)
Where two headings read alike, the source gives them in different places.

Columns and labels:
CHO cells = test: Fed-batch culture of CHO cells with GABA-supplemented feed medium; type: cell-based, Chinese hamster
Experimental: The impact of gamma-aminobutyric acid (GABA) levels in the culture on cell density (growth), viability, and lactate concentration was evaluated in CHO cells in a fed-batch process (FIG. 9).
Cryopreserved CHO cells were thawed and maintained in 500 mL, 1000 mL or 3000 mL shake flasks with 100 mL, 200 mL or 1000 mL working volumes using cell culture medium CM3 and were passaged every 2 to 4 days. For maintenance cultures, the incubator was controlled at 36° C. and 5% CO2. A 5 liter (L) glass Applikon vessels using Finesse TruBio DV controllers (Finesse Solutions, San Jose, Calif.) were used for the fed-batch process. Bioreactors were seeded with an initial working volume of 2.5 L at a constant seed. For the control process, feed medium, CF2b, was given on day 3, day 5 and daily thereafter (starting on day 6) until the day before harvest and culture termination. The control process lasted 15 days with harvest and culture termination on day 15. CF2b is designated as a complete feed, comprised of all necessary nutritional elements including glucose, amino acids, vitamins, and metals. For GABA culture, feed medium was supplemented with 8 mM of GABA. The GABA culture lasted 17 days with harvest and culture termination on day 17. The complete feed amount was calculated as a predetermined fixed percentage based on culture volume. Glucose is maintained by the feeding strategy above 2 g/L in general by the bolus feeds and is not limiting. Culture temperature was set at 35° C. and medium pH was controlled at 7.1±0.2 by the addition of either 1 M sodium carbonate or CO2 gas. Dissolved oxygen (DO) was maintained at 30% with air sparge, enriched with oxygen as necessary, through a drilled hole sparger. Agitation was maintained between 200 and 400 rpm throughout the culture to limit total gas flow. An air overlay was maintained between 0.005 and 0.02 gas volume flow per unit of liquid volume per minute (vvm).

Cell Line B [1] = test: Alternative antioxidants as replacement for hypotaurine, Cell Line B waste accumulation and culture performance; type: cell-based
Experimental: Taurine is the by-product of hypotaurine metabolism. Therefore, cell culture performance when 8 mM taurine was added to the feed medium was compared to cell culture performance when 8 mM of hypotaurine was added to the feed medium. Initial cell density was one million cells (1e6).
Cysteamine is a precursor of hypotaurine. […] Initial cell density was one million cells (1e6). The effects of glutathione, another type of antioxidant, were also explored.

Cell Line B [2] = test: Fed-batch culture of Cell Line B with hypotaurine feed medium; type: cell-based
Experimental: The control feed medium contained 0 mM hypotaurine. The hypotaurine feed medium contained 8 mM hypotaurine. […] The concentration of hypotaurine in the bioreactor on Day 16 was approximately 2.7 mM. […] Initial cell density was one million cells (1e6). The effects of hypotaurine were evident starting on Day 10.

Cell Line B [3] = system: Cell Line B
Experimental: Cell Line B expressed the polypeptide Lingo. […] Feed medium was added daily from Day 1 to Day 15 to the cell culture. […] Initial cell density was one million cells (1e6).

Cell Line B [4] = system: Cell Line B; remark: listed apart in the source
Cell Line A = system: Cell Line A
Experimental: Cell Line A expressed the polypeptide Neublastin. […] Feed medium was added daily from Day 2 to Day 12 to the cell culture. […] Initial cell density was one million cells (1e6).

[5] = feed medium supplemented with 8 mM GABA vs control
[6] = 8 mM hypotaurine feed medium vs control feed with 0 mM hypotaurine
[7] = 18 mM choline chloride feed medium vs control feed with 3 mM choline chloride
[8] = 9 mM choline chloride feed medium vs control feed with 3 mM choline chloride

NCCCC(=O)O [GABA, Gamma-Aminobutyric Acid]
growth (viable cell density) (CHO cells; feed medium CF2b supplemented with 8 mM GABA vs unsupplemented control feed): higher | delay of the onset of a high lactate phenotype compared to control (CHO cells; feed medium supplemented with 8 mM GABA): about 2 days | lactate accumulation (CHO cells; [5]): lower | viability (CHO cells; [5]): higher | culture duration (harvest and culture termination) (CHO cells; feed medium supplemented with 8 mM GABA, control process lasted 15 days): 17 days

N[C@@H](CCC(=O)N[C@@H](CS)C(=O)NCC(=O)O)C(=O)O [glutathione]
cell culture performance (growth, viability, ammonium concentration, titer) as replacement for hypotaurine (Cell Line B [1]; 1.3 mM glutathione/18 mM choline chloride in feed vs 8 mM hypotaurine and 18 mM choline chloride): not able to serve as replacements for hypotaurine

NCCS(=O)O [Hypotaurine, hypotaurine]
day from which the effects were evident (Cell Line B [2]; 8 mM hypotaurine feed medium): 10 days | ammonium accumulation (Cell Line B [2]; [6]): lower | titer (Cell Line B [2]; [6]): higher | viability (Cell Line B [2]; [6]): higher | growth (cell density) (Cell Line B [2]; 8 mM hypotaurine feed medium vs control feed with 0 mM hypotaurine, fed daily Day 1 to Day 15): higher | Day 10 (Effective) Hypotaurine Conc. (Cell Line B [2]; hypotaurine used alone, concentration in culture on Day 10, when effects became evident): 2.5 mM

C[N+](C)(C)CCO.[Cl-] [Choline, choline chloride]
day from which the effects were evident (Cell Line B [3]; 18 mM choline chloride feed medium): 9 days | ammonium accumulation (Cell Line B [3]; [7]): lower | viability (Cell Line B [3]; [7]): higher | titer (Cell Line B [3]; 18 mM choline chloride feed medium vs control feed with 3 mM choline chloride, Lingo): slightly higher | growth (cell density) (Cell Line B [3]; 18 mM choline chloride feed medium vs control feed with 3 mM choline chloride, fed daily Day 1 to Day 15): higher | Day 9 (Effective) Choline Conc. (Cell Line B [3]; choline used alone, concentration in culture on Day 9, when effects became evident): 4.65 mM | Effective Choline Conc. (Cell Line B [4]; Day 6, high seed): 4.0 mM | culture viability crash (Cell Line B [4]; high seed 8×10^6 vc/mL, after day 12): occurred after day 12 | day from which the effects were evident (Cell Line A; 9 mM choline chloride feed medium): 3 days | ammonium accumulation (Cell Line A; [8]): lower | viability (Cell Line A; [8]): higher | titer (Cell Line A; 9 mM choline chloride feed medium vs control feed with 3 mM choline chloride, Neublastin): higher | growth (cell density) (Cell Line A; 9 mM choline chloride feed medium vs control feed with 3 mM choline chloride, fed daily Day 2 to Day 12): higher | Day 3 (Effective) Choline Conc. (Cell Line A; concentration in culture on Day 3, when effects became evident): 0.90 mM

NCCS(=O)(=O)O [taurine]
cell culture performance (growth, viability, ammonium concentration, titer) as replacement for hypotaurine (Cell Line B [1]; 8 mM taurine in feed medium vs 8 mM hypotaurine in feed medium): not able to serve as a replacement for hypotaurine

NCCS [Cysteamine, cysteamine]
cell culture performance (growth, viability, ammonium concentration, titer) as replacement for hypotaurine (Cell Line B [1]; 3 mM cysteamine/18 mM choline chloride in feed vs 8 mM hypotaurine and 18 mM choline chloride): not able to serve as replacements for hypotaurine
